Measurements published in PubChem BioAssay (NCI).
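Five concentrations, 48 hours, 96-well plates. TGI is the concentration that stops growth completely.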

What follows are compounds tested on CAKI-1 renal (assay: NCI tumour cell line growth inhibition, 48 h).

**Q.** Which TGI does the source give for `O=C(NCP(=O)(c1ccccc1)c1ccccc1)OCc1ccccc1` here?
**A.** > 100 µM

**Q.** Which TGI does the source give for `CCOC(C)O[C@H]1C(=O)OCC1(C)C` (stereo partly drawn) here?
**A.** > 100 µM

**Q.** `CC(CC[C@@]1(C)C(=O)CCC2O[C@]21C)[C@H]1C[C@@H](c2ccoc2)OC1=O` (stereo partly drawn) was tested. Which TGI did it give?
**A.** 71.8 µM

**Q.** With `O=Cc1ccccc1COC(=O)c1cc(C(=O)OCc2ccccc2C=O)c(C(=O)OCc2ccccc2C=O)cc1C(=O)OCc1ccccc1C=O` as the compound, how does the TGI read?
**A.** > 100 µM

**Q.** Which TGI does the source give for `CCOC1=NC(O)c2cccn2-c2sccc21` (stereo not drawn) here?
**A.** > 100 µM

**Q.** With `COC(=O)c1cc2c(cc1CC(Cc1ccc3c(c1)CCCC3)C(=O)OC)CCCC2` (stereo not drawn) as the compound, how does the TGI read?
**A.** > 100 µM

**Q.** How did the TGI turn out when `O=C1c2ccsc2C(=O)c2sc(CO)cc21` was run?
**A.** 9.69 µM

**Q.** With `O=C(c1cccs1)N1CCc2ccccc2C1` as the compound, how does the TGI read?
**A.** > 100 µM

**Q.** With `CC1S/C(=N\N=C2/C(=O)Nc3ccc(Br)cc32)N(C2CCCCC2)C1=O` (stereo not drawn) as the compound, how does the TGI read?
**A.** 6.39 µM

**Q.** How did the TGI turn out when `CN(C)CC1CCCC(CN(C)C)C1OC(=O)c1ccccc1` (stereo not drawn) was run?
**A.** > 100 µM

**Q.** For `CCCCC1Cc2ccccc2-c2nc3ccccc3n21` (stereo not drawn), which TGI is on record?
**A.** 31.9 µM

**Q.** `Cc1cc(N(CCC#N)CCC#N)ccc1/C=C(\NC(=O)/C=C/c1ccccc1)C(N)=O` was tested. Which TGI did it give?
**A.** > 100 µM

**Q.** Which TGI does the source give for `CCC(=O)Oc1ccc2c(c1)c(=O)c1c(NCCCN(C)C)ccc3nnn2c31` here?
**A.** 14.3 µM

**Q.** With `Cc1ccc(S(=O)(=O)N/N=C2/CCCOC2)cc1` as the compound, how does the TGI read?
**A.** > 100 µM

**Q.** `C[Si](C)(C)OC1CC(=O)OC1n1cc(F)c(=O)[nH]c1=O` (stereo not drawn) was tested. Which TGI did it give?
**A.** > 100 µM

**Q.** Which TGI does the source give for `CCOC(=O)C1C(=O)CC1(C)C` (stereo not drawn) here?
**A.** > 10 µM

What follows are compounds tested on DU-145 prostate (assay: NCI tumour cell line growth inhibition, 48 h).

**Q.** For `O=C(N/N=C\C=C\c1ccc([N+](=O)[O-])o1)C(=O)N/N=C\C=C\c1ccc([N+](=O)[O-])o1`, which TGI is on record?
**A.** > 100 µM

**Q.** For `Nc1nc(-c2ccccc2)cc(-c2ccc(OCc3ccccc3)cc2O)n1`, which TGI is on record?
**A.** > 100 µM

**Q.** How did the TGI turn out when `CCOC(=O)c1cn2c(n1)sc1cc(Cl)ccc12` was run?
**A.** > 100 µM

**Q.** `CCN1CCN(c2nc3ccccc3c3c2CCOc2ccccc2-3)CC1` was tested. Which TGI did it give?
**A.** > 31.6 µM

**Q.** `O=C(NCP(=O)(c1ccccc1)c1ccccc1)OCc1ccccc1` was tested. Which TGI did it give?
**A.** > 100 µM

**Q.** For `CCOC(C)O[C@H]1C(=O)OCC1(C)C` (stereo partly drawn), which TGI is on record?
**A.** > 100 µM

**Q.** How did the TGI turn out when `CC(CC[C@@]1(C)C(=O)CCC2O[C@]21C)[C@H]1C[C@@H](c2ccoc2)OC1=O` (stereo partly drawn) was run?
**A.** > 100 µM

**Q.** `CCOC1=NC(O)c2cccn2-c2sccc21` (stereo not drawn) was tested. Which TGI did it give?
**A.** > 100 µM

**Q.** For `COC(=O)c1cc2c(cc1CC(Cc1ccc3c(c1)CCCC3)C(=O)OC)CCCC2` (stereo not drawn), which TGI is on record?
**A.** > 100 µM

**Q.** How did the TGI turn out when `O=C(c1cccs1)N1CCc2ccccc2C1` was run?
**A.** > 100 µM

**Q.** For `CC1S/C(=N\N=C2/C(=O)Nc3ccc(Br)cc32)N(C2CCCCC2)C1=O` (stereo not drawn), which TGI is on record?
**A.** 17.6 µM

**Q.** For `CCCCC1Cc2ccccc2-c2nc3ccccc3n21` (stereo not drawn), which TGI is on record?
**A.** 38.1 µM

**Q.** Which TGI does the source give for `CCC(=O)Oc1ccc2c(c1)c(=O)c1c(NCCCN(C)C)ccc3nnn2c31` here?
**A.** 16.7 µM

**Q.** Which TGI does the source give for `Cc1ccc(S(=O)(=O)N/N=C2/CCCOC2)cc1` here?
**A.** > 100 µM

**Q.** With `CCOC(=O)C1C(=O)CC1(C)C` (stereo not drawn) as the compound, how does the TGI read?
**A.** > 10 µM

These compounds were tested on HCC-2998 colon (assay: NCI tumour cell line growth inhibition, 48 h).

**Q.** Which TGI does the source give for `O=c1cc(-c2ccc(Oc3ccccc3)cc2)[nH]c2cc3c(cc12)OCO3` here?
**A.** > 100 µM

**Q.** For `CCOC(=O)CC(C)C1(C(=O)OCC)CCCCC1=O` (stereo not drawn), which TGI is on record?
**A.** > 100 µM

**Q.** `O=C(N/N=C\C=C\c1ccc([N+](=O)[O-])o1)C(=O)N/N=C\C=C\c1ccc([N+](=O)[O-])o1` was tested. Which TGI did it give?
**A.** > 100 µM

**Q.** `CC(=O)O[C@H]1C(=O)[C@@]2(C)C(C(OC(=O)c3ccccc3)[C@]3(O)CC(OC(=O)C(O)C(NC(=O)c4ccc(C(F)(F)F)cc4)c4ccccc4)C(C)=C1C3(C)C)[C@]1(OC(C)=O)CO[C@@H]1C[C@@H]2O` (stereo partly drawn) was tested. Which TGI did it give?
**A.** 0.387 µM

**Q.** For `COC(=O)CC1N=C(NC#N)N(CCc2c[nH]c3ccccc23)C1=O` (stereo not drawn), which TGI is on record?
**A.** > 100 µM

**Q.** With `Nc1nc(-c2ccccc2)cc(-c2ccc(OCc3ccccc3)cc2O)n1` as the compound, how does the TGI read?
**A.** > 100 µM

**Q.** How did the TGI turn out when `CCOC(=O)c1cn2c(n1)sc1cc(Cl)ccc12` was run?
**A.** > 100 µM

**Q.** Which TGI does the source give for `CCN1CCN(c2nc3ccccc3c3c2CCOc2ccccc2-3)CC1` here?
**A.** 37.3 µM

**Q.** For `O=C(NCP(=O)(c1ccccc1)c1ccccc1)OCc1ccccc1`, which TGI is on record?
**A.** > 100 µM

**Q.** How did the TGI turn out when `CCOC(C)O[C@H]1C(=O)OCC1(C)C` (stereo partly drawn) was run?
**A.** > 100 µM

**Q.** How did the TGI turn out when `CC(CC[C@@]1(C)C(=O)CCC2O[C@]21C)[C@H]1C[C@@H](c2ccoc2)OC1=O` (stereo partly drawn) was run?
**A.** > 100 µM

**Q.** For `O=Cc1ccccc1COC(=O)c1cc(C(=O)OCc2ccccc2C=O)c(C(=O)OCc2ccccc2C=O)cc1C(=O)OCc1ccccc1C=O`, which TGI is on record?
**A.** > 100 µM

**Q.** With `CCOC1=NC(O)c2cccn2-c2sccc21` (stereo not drawn) as the compound, how does the TGI read?
**A.** > 100 µM

**Q.** With `COC(=O)c1cc2c(cc1CC(Cc1ccc3c(c1)CCCC3)C(=O)OC)CCCC2` (stereo not drawn) as the compound, how does the TGI read?
**A.** 93.8 µM

**Q.** How did the TGI turn out when `O=C1c2ccsc2C(=O)c2sc(CO)cc21` was run?
**A.** 5.33 µM

**Q.** How did the TGI turn out when `O=C(c1cccs1)N1CCc2ccccc2C1` was run?
**A.** > 100 µM

**Q.** `CC1S/C(=N\N=C2/C(=O)Nc3ccc(Br)cc32)N(C2CCCCC2)C1=O` (stereo not drawn) was tested. Which TGI did it give?
**A.** 45 µM

**Q.** With `CN(C)CC1CCCC(CN(C)C)C1OC(=O)c1ccccc1` (stereo not drawn) as the compound, how does the TGI read?
**A.** > 100 µM

**Q.** `CCCCC1Cc2ccccc2-c2nc3ccccc3n21` (stereo not drawn) was tested. Which TGI did it give?
**A.** 27.8 µM

**Q.** `Cc1cc(N(CCC#N)CCC#N)ccc1/C=C(\NC(=O)/C=C/c1ccccc1)C(N)=O` was tested. Which TGI did it give?
**A.** > 100 µM

**Q.** For `CCC(=O)Oc1ccc2c(c1)c(=O)c1c(NCCCN(C)C)ccc3nnn2c31`, which TGI is on record?
**A.** 15 µM

**Q.** How did the TGI turn out when `Cc1ccc(S(=O)(=O)N/N=C2/CCCOC2)cc1` was run?
**A.** > 100 µM

**Q.** `C[Si](C)(C)OC1CC(=O)OC1n1cc(F)c(=O)[nH]c1=O` (stereo not drawn) was tested. Which TGI did it give?
**A.** > 100 µM

**Q.** `CCOC(=O)C1C(=O)CC1(C)C` (stereo not drawn) was tested. Which TGI did it give?
**A.** > 10 µM

The compounds below were run on HCT-15 colon (assay: NCI tumour cell line growth inhibition, 48 h).

**Q.** With `O=c1cc(-c2ccc(Oc3ccccc3)cc2)[nH]c2cc3c(cc12)OCO3` as the compound, how does the TGI read?
**A.** > 100 µM

**Q.** For `CCOC(=O)CC(C)C1(C(=O)OCC)CCCCC1=O` (stereo not drawn), which TGI is on record?
**A.** 50 µM

**Q.** Which TGI does the source give for `O=C(N/N=C\C=C\c1ccc([N+](=O)[O-])o1)C(=O)N/N=C\C=C\c1ccc([N+](=O)[O-])o1` here?
**A.** > 100 µM
